The text below walks through data of US12257287B2, “Glucagon-derived peptide and use thereof” (Tianjin Institute of Pharmaceutical Research Co., Ltd., priority 2018, dated 2025).

One data set deals with T1, GC receptor (Homo sapiens, UniProt P47871).
T1 construct: expressed in transfected cells; host or cells: HEK293 cells
Briefly: GC receptor mediated cAMP production in vitro (HEK293 cells transfected with GC receptor). It counts as cell-based. The conditions noted are these: 20 min at 37° C., read-out: GCGR (nM EC50). The source says: The medium was removed, the cells were lysed, and cAMP values were detected referring to the detection method described for the assay kit.
In general terms: cAMP levels reflect the balance of adenylyl cyclase and phosphodiesterase activity.

The nature of data set [1]: Effect on body weight of DIO mice after 14 days' administration. It counts as in vivo, C57BL/6J mice. The conditions noted are these: for body weight change, Table 5: Example 4, DIO mice, 14 days' administration, methods as in Example 3, positive values indicate a decrease; for body weight reduction (in words): DIO mice, 14 days, conclusions on Tables 3 and 5. The source says: C57BL/6J mice (n=35), model group (n=30) were fed with H10060 high-fat diet to induce obesity (DIO), blank control group (n=5) were fed with standard diet, both for 34 weeks. One day before the first administration, the model group was randomly divided into groups according to their body weight (average body weight range 45.0-52.0 g), with 5 mice in each group, which respectively were model control group, positive control group (semaglutide), and test sample group (1 #-4 # are compound 1, compound 4, compound 6 and compound 22, respectively). The blank control group and model control group were given saline subcutaneously every day, while the positive control group and test sample group were administrated by subcutaneous injection every day for 14 days. The body weight of the animals was weighed and recorded every day, and the change rate of body weight (%) was calculated by comparing the body weight at the last administration day with the initial body weight. (initial body weight−last body weight)/initial body weight=body weight change rate (%). Calculation formula: […]
Calculated positive values indicate a decrease and negative values indicate an increase.
(§1) Methods are the same as that in Example 3, the test results of effects on body weight are shown in Table 5, and the effects on blood glucose are shown in Table 6. In the table, 5 #-9 # are compound 27, compound 35, compound 54, compound 57, and compound 66, respectively.

A short description of data set [2]: Glucose tolerance test in glucose-loaded DIO mice. The conditions noted are these: for AUC of blood glucose, Table 6: Example 4, DIO mice under glucose load, methods as in Example 3; for AUC reduction rate (%), Table 6: Example 4, compared with model control group, DIO mice under glucose load; for glucose tolerance / blood glucose lowering (in words): DIO mice, conclusions on Tables 4 and 6. It counts as in vivo. Set-up: AUC reduction rate (%), Table 6: concentration or dose not given beside the values. The method, then: DIO mice fasted for 16 h, and 1 h after administration by subcutaneous injection, glucose solution (1 g/kg) was given intraperitoneally for glucose tolerance test. Blood glucose values were measured at 0.5, 1 and 1.5 h after glucose administration. The area under the blood glucose concentration curve (AUC) was calculated and compared with that of the model control group, and the blood glucose inhibition rate (%) was calculated.
as §1

A short description of data set [3]: Short-term administration: food intake and body weight in DIO mice. Type of data set: in vivo. Conditions: 30 nmol/kg once every 24 h, twice, − decrease; for Rate of change in food intake (%): at 48 hours vs day before administration; for Body weight change: at 48 hours. The method, then:
Method: diet-induced obese mice (DIO) with an average body weight of 52.5 g were divided into model control and test groups, 5 mice in each group. The test samples were dissolved in 10 mM PBS of pH7.4, injected once every 24 h at a dose of 30 nmol/kg, and administered twice. The model group was injected with solvent. Changes in food intake and body weight at 48 hours were measured, and the change rates were calculated compared to the day before administration.

A further data set can be described thus: physchem. It counts as physicochemical.
Data set [4] can be described thus: Accelerated chemical stability in injection solvent system (HPLC-UV). It counts as physicochemical. Conditions: 14 days, phosphate buffer pH 7.3 with Tween 80 and phenol, main peak area vs day 0. The method, then: The chemical stability of the compounds of the present invention in injection solution systems was evaluated by an accelerated stability test. Methods: an appropriate amount of compound of Example 1 was weighed, and dissolved in 10 mM pH8.5 sodium hydrogen phosphate buffer. The final pH value of the solution was adjusted to 7.3 with 0.1 N hydrochloric acid, and proper amounts of Tween 80 and phenol were added. The mixture was placed at 10° C. and 37° C. for 14 days, and detected by HPLC-UV. The main peak area was obtained by peak area normalization method, and the changes compared with day 0 were investigated. The HPLC detection method was the same as that in Example 6, and the mobile phase gradient was appropriately adjusted according to the situation of chromatographic peak separation.

The mark [5] stands for this setting: pH 7.5, Solubility, pH 7.5, 10 mM phosphate buffer.
[6] abbreviates: pH 7.5, Solubility, pH 7.5, 20 mM phosphate buffer.

Values after ≈ are worked out from the molar mass of the structure shown. Marks after values point to notes of the source that are not given here. Numbered stars: 1 amine (or outer) side, 2 acyl side, 3 side chain; on linkers, the order of the positions; unused ones are H or OH. Square brackets hold non-standard residues; d marks the D form. Side chains are listed from the residue outwards. Peptide text beside a SMILES is read from it. * marks the point of attachment. C18 diacid = O=C(O)CCCCCCCCCCCCCCCCC(=O)*; γGlu = O=C(O)[C@H](CCC(=O)[*:2])N[*:1]; AEEA = NCCOCCOCC(=O)O; Aib = CC(C)(N)C(=O)O
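For Solubility in this document: compound added at 2 mg per mL of phosphate buffer, with the dissolved amount determined in the supernatant.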

T1 sequence (P47871 26-477): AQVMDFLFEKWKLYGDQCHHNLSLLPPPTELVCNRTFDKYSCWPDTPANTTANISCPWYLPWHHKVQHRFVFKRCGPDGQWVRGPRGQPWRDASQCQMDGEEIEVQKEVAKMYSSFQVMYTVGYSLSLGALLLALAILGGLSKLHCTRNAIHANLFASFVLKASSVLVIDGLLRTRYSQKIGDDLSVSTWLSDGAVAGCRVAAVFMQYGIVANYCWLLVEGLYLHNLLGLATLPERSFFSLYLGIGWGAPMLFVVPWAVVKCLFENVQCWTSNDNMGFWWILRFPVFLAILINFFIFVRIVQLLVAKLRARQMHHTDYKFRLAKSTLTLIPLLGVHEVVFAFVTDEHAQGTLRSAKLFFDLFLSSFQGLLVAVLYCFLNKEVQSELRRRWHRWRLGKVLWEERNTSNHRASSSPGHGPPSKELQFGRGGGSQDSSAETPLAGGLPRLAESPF
Method for physchem: 2 mg of the compound was weighed, dissolved in 1 ml of phosphate buffer solutions with different concentrations (10, 20 mM) and different pH values (7.5, 8.0), and centrifuged, and supernatant was taken. The peak area was measured by HPLC (chromatographic column: Aeris widepore XB-C18 3.6 mm, 4.6×150 mm; mobile phase: A: 0.05% TFA, B: 95% acetonitrile; detection wavelength: 214 nm) and compared with a corresponding sample standard solution, and the relative concentration of the test sample solution is calculated.

For `CCCCCCCCCCCCCCCC(=O)N[C@@H](CCC(=O)N[C@@H](CCC(=O)NCCCC[C@H](NC(=O)[C@H](CC(=O)O)NC(=O)[C@H](CO)NC(=O)[C@@H](NC(=O)[C@H](Cc1ccccc1)NC(=O)[C@@H](NC(=O)CNC(=O)[C@H](CCC(N)=O)NC(=O)C(C)(C)NC(=O)[C@@H](N)Cc1c[nH]cn1)[C@@H](C)O)[C@@H](C)O)C(=O)N[C@@H](CO)C(=O)N[C@@H](CCCCN)C(=O)N[C@@H](Cc1ccc(O)cc1)C(=O)N[C@@H](CC(C)C)C(=O)N[C@@H](CCC(=O)O)C(=O)N[C@@H](CCC(=O)O)C(=O)N[C@@H](CCCNC(=N)N)C(=O)N[C@@H](C)C(=O)N[C@@H](C)C(=O)N[C@@H](CCCCN)C(=O)N[C@@H](CCC(=O)O)C(=O)N[C@@H](Cc1ccccc1)C(=O)N[C@H](C(=O)N[C@@H](CCC(=O)O)C(=O)N[C@@H](Cc1c[nH]c2ccccc12)C(=O)N[C@@H](CC(C)C)C(=O)N[C@@H](CCC(=O)O)C(=O)NCC(=O)NCC(=O)N1CCC[C@H]1C(=O)N[C@@H](CO)C(=O)N[C@@H](CO)C(=O)NCC(N)=O)C(C)C)C(=O)O)C(=O)O` [Compound 7] (HELM PEPTIDE1{H.[Aib].Q.G.T.F.T.S.D.K.S.K.Y.L.E.E.R.A.A.K.E.F.V.E.W.L.E.G.G.P.S.S.G.[am]}|PEPTIDE2{[CCCCCCCCCCCCCCCC(=O)[*:2]].[gGlu].[gGlu]}$PEPTIDE1,PEPTIDE2,10:R3-3:R2$$$V2.0; N-terminus assumed), the EC50 (usually the concentration at which the effect is half-maximal) on GC receptor was found to be 0.026 nM. In addition, the “body weight change, Table 5” value in data set [1] (listed as 7#) is on record as 21.45. For the same molecule, in data set [2] (listed as 7#), the “AUC of blood glucose, Table 6” value turned out to be 7.26 ± 1.77 mmol·h/L and the “AUC reduction rate (%), Table 6” value is on record as 63.4** %.
For the molecule `CCCCCCCCCCCCCCCC(=O)N[C@@H](CCC(=O)N[C@@H](CCC(=O)NCCCC[C@H](NC(=O)[C@H](C)NC(=O)[C@H](CCCNC(=N)N)NC(=O)[C@H](CCCCN)NC(=O)[C@H](CCC(=O)O)NC(=O)[C@H](CC(=O)O)NC(=O)[C@H](CC(C)C)NC(=O)[C@H](Cc1ccc(O)cc1)NC(=O)[C@H](CCCCN)NC(=O)[C@H](CO)NC(=O)[C@H](Cc1ccc(O)cc1)NC(=O)[C@H](CC(=O)O)NC(=O)[C@H](CO)NC(=O)[C@@H](NC(=O)[C@H](Cc1ccccc1)NC(=O)[C@@H](NC(=O)CNC(=O)[C@H](CCC(N)=O)NC(=O)C(C)(C)NC(=O)[C@@H](N)Cc1c[nH]cn1)[C@@H](C)O)[C@@H](C)O)C(=O)N[C@@H](CCC(=O)O)C(=O)N[C@@H](Cc1ccccc1)C(=O)N[C@H](C(=O)N[C@@H](C)C(=O)N[C@@H](Cc1c[nH]c2ccccc12)C(=O)N[C@@H](CC(C)C)C(=O)N[C@@H](CCC(=O)O)C(=O)N[C@@H](C)C(=O)NCC(=O)NCC(=O)N1CCC[C@H]1C(=O)N[C@@H](CO)C(=O)N[C@@H](CO)C(=O)NCC(N)=O)[C@@H](C)CC)C(=O)O)C(=O)O` [Compound 57] (HELM PEPTIDE1{H.[Aib].Q.G.T.F.T.S.D.Y.S.K.Y.L.D.E.K.R.A.K.E.F.I.A.W.L.E.A.G.G.P.S.S.G.[am]}|PEPTIDE2{[CCCCCCCCCCCCCCCC(=O)[*:2]].[gGlu].[gGlu]}$PEPTIDE1,PEPTIDE2,20:R3-3:R2$$$V2.0; N-terminus assumed), the EC50 on GC receptor was determined as 0.081 nM. Moreover, the “body weight reduction (in words)” value in data set [1] is on record as “significantly reduced body weight”. Moreover, the “glucose tolerance / blood glucose lowering (in words)” value in data set [2] was “significantly improved glucose tolerance”. The “Rate of change in food intake (%)” value in data set [3] is listed as −71%. For the same molecule, in data set [3], the “Body weight change” value was -2.6 g. Also, the solubility – broadly, how much of the substance goes into solution per volume – turned out to be 1460 µg/mL (≈ 343 µM) in the data set “physchem” (setting [5]); 1310 µg/mL (≈ 308 µM) in the data set “physchem” (setting [6]); 1840 µg/mL (≈ 432 µM) in the data set “physchem” (pH 8, Solubility, pH 8.0, 10 mM phosphate buffer); 1530 µg/mL (≈ 359 µM) in “physchem” (pH 8, Solubility, pH 8.0, 20 mM phosphate buffer). For the same molecule, the “Change in purity % (10° C.)” value in data set [4] is reported as −1.1%. Further, the “Change in purity % (37° C.)” value in data set [4] is given as −4.0%.
On to `CC[C@H](C)[C@H](NC(=O)[C@H](Cc1ccccc1)NC(=O)[C@H](CCC(=O)O)NC(=O)[C@H](CCCCN)NC(=O)[C@H](C)NC(=O)[C@H](C)NC(=O)[C@H](CCCNC(=N)N)NC(=O)[C@H](CCC(=O)O)NC(=O)[C@H](CCC(=O)O)NC(=O)[C@H](CC(C)C)NC(=O)[C@H](Cc1ccc(O)cc1)NC(=O)[C@H](CCCCN)NC(=O)[C@H](CO)NC(=O)[C@H](CCCCNC(=O)COCCOCCNC(=O)COCCOCCNC(=O)CC[C@H](NC(=O)CCCCCCCCCCCCCCCCC(=O)O)C(=O)O)NC(=O)[C@H](CC(=O)O)NC(=O)[C@H](CO)NC(=O)[C@@H](NC(=O)[C@H](Cc1ccccc1)NC(=O)[C@@H](NC(=O)CNC(=O)[C@H](CCC(N)=O)NC(=O)C(C)(C)NC(=O)[C@@H](N)Cc1c[nH]cn1)[C@@H](C)O)[C@@H](C)O)C(=O)N[C@@H](C)C(=O)N[C@@H](Cc1c[nH]c2ccccc12)C(=O)N[C@@H](CC(C)C)C(=O)N[C@@H](CCC(=O)O)C(=O)N[C@@H](C)C(=O)NCC(=O)NCC(=O)N1CCC[C@H]1C(=O)N[C@@H](CO)C(=O)N[C@@H](CO)C(=O)NCC(N)=O` [Compound 27] (H-H[Aib]QGTFTSDK([AEEA-AEEA-γGlu-C18 diacid])SKYLEERAAKEFIAWLEAGGPSSG-NH2; N-terminus assumed), for which, on GC receptor, the EC50 was determined as 0.014 nM. In data set [1], the “body weight reduction (in words)” value is listed as “significantly reduced body weight”. In addition, the “glucose tolerance / blood glucose lowering (in words)” value in data set [2] is given as “significantly improved glucose tolerance”. Also, in data set [3], the “Rate of change in food intake (%)” value is −55% and the “Body weight change” value was -1.9 g. The same molecule had a solubility in “physchem” (setting [5]) of over 2000 µg/mL. In the data set “physchem” (setting [6]), this molecule returned a solubility of over 2000 µg/mL. Also, in data set [4], the “Change in purity % (10° C.)” value is on record as −1.8% and the “Change in purity % (37° C.)” value is reported as −4.6%.
For `CCCCCCCCCCCCCCCC(=O)N[C@@H](CCC(=O)N[C@@H](CCC(=O)NCCCC[C@H](NC(=O)[C@H](CC(=O)O)NC(=O)[C@H](CO)NC(=O)[C@@H](NC(=O)[C@H](Cc1ccccc1)NC(=O)[C@@H](NC(=O)CNC(=O)[C@H](CCC(N)=O)NC(=O)C(C)(C)NC(=O)[C@@H](N)Cc1c[nH]cn1)[C@@H](C)O)[C@@H](C)O)C(=O)N[C@@H](CO)C(=O)N[C@@H](CCCCN)C(=O)N[C@@H](Cc1ccc(O)cc1)C(=O)N[C@@H](CC(C)C)C(=O)N[C@@H](CCC(=O)O)C(=O)N[C@@H](CCC(=O)O)C(=O)N[C@@H](CCCNC(=N)N)C(=O)N[C@@H](C)C(=O)N[C@@H](C)C(=O)N[C@@H](CCCCN)C(=O)N[C@@H](CCC(=O)O)C(=O)N[C@@H](Cc1ccccc1)C(=O)N[C@H](C(=O)N[C@@H](CCC(=O)O)C(=O)N[C@@H](Cc1c[nH]c2ccccc12)C(=O)N[C@@H](CC(C)C)C(=O)N[C@@H](CCC(=O)O)C(=O)NCC(=O)NCC(=O)N1CCC[C@H]1C(=O)N[C@@H](CO)C(=O)N[C@@H](CO)C(=O)NCC(N)=O)C(C)C)C(=O)O)C(=O)O` [Compound 5] (HELM PEPTIDE1{H.[Aib].Q.G.T.F.T.S.D.K.S.K.Y.L.E.E.R.A.A.K.E.F.V.E.W.L.E.G.G.P.S.S.G.[am]}|PEPTIDE2{[CCCCCCCCCCCCCCCC(=O)[*:2]].[gGlu].[gGlu]}$PEPTIDE1,PEPTIDE2,10:R3-3:R2$$$V2.0; N-terminus assumed), the EC50 at GC receptor was determined as 0.193 nM. In addition, the “body weight change, Table 5” value in data set [1] (listed as 5#) is 27.74. Moreover, in data set [2] (listed as 5#), the “AUC of blood glucose, Table 6” value stood at 7.12 ± 1.30 mmol·h/L and the “AUC reduction rate (%), Table 6” value is on record as 64.2** %.
